Data taken from US4481201A, “Pharmaceutical composition containing N,N^3 -di-(β-bromopropionyl)-N^1,N^2 -dispirotripiperazinium dichloride” (Vsesojuzny Nauchno-Issledovatelsky Khimoko-Farmasevtichesky …, priority 1981, dated 1984).

Experiments:
[1] = Growth of graft sarcoma 37 in mice; format: in vivo, noninbred white mice; conditions: mouse, in vivo, ip; mice with sarcoma 37, repeated intraperitoneal administration; read-out: Maximum tolerable dose (MTD)
From the text: (§1) The antitumor activity has been studied on white rats weighing 110-130 g, as well as on white noninbred and inbred mice weighing 17-21 g with ligated tumors. The treatment is started 5-7 days transplanting of solid tumors and the following day after the transplanting of leukotic strains. Use has been made of the following transplantable strains of the tumors:
(§2) (2) noninbred white mice: sarcoma 180, sarcoma AK, sarcoma 37, carcinoma HK;
(§3) The compounds of the general formula (I), wherein X represents Cl^- (compound 1), Br^- (compound 2) are well-soluble in an isotonic solution of sodium chloride and they are administered intraperitoneally. The doses of the compounds have been calculated in mg per kg of the animal bodyweight.

sarcoma 37 = assay: Growth of graft sarcoma 37 in mice; format: in vivo, noninbred white mice; conditions: mice
From the text: as §1, §2, §3

leukemia La = assay: Life span of mice with transplantable leukemia La; format: in vivo, inbred mice
From the text: as §1
(§4) (3) inbred mice: leukemia La, leukemia L1210 and P-388.
(§5) The activity of compounds relative to leukosis has been assessed by the life span (It) of treated animals as compared to the control ones. It --index of suppression of leukosis development is calculated by the formula: [formula]

[2] = Growth of graft sarcoma M-1 in rats; format: in vivo; conditions: rat, in vivo, ip, rats with sarcoma M-1, repeated intraperitoneal administration; read-out: Maximum tolerable dose (MTD)
From the text: as §1
(§6) (1) rats: Ienssen's sarcoma, sarcoma 45, sarcoma M-1, sarcoma 536;
as §3

sarcoma M-1 = assay: Growth of graft sarcoma M-1 in rats; format: in vivo; conditions: rats, 5 injections
From the text: as §1, §6, §3

[3] = Toxicity on single and repeated administration to mice; format: in vivo
Method: (3) acute toxicity of the compounds upon a single and repeated administration to white noninbred mice places into standard cages with 8 animals in each.
In the investigation of toxic properties of the compounds according to the present invention there has been determined the absolutely lethal dose (DL95), average lethal dose (DL50) and MTD. For compounds 1 and 2 there were determined DL95 and DL50 on healthy white mice with the body mass of 18-21 g at a single and repeated (once a day, daily for 7 days) intraperitoneal administration.

[4] = Growth of graft sarcoma 45 in rats; format: in vivo; conditions: rat, in vivo, ip, rats with sarcoma 45, repeated intraperitoneal administration; read-out: Maximum tolerable dose (MTD)
From the text: as §1, §6, §3

sarcoma 45 = assay: Growth of graft sarcoma 45 in rats; format: in vivo; conditions: rats
From the text: as §1, §6, §3

leukemia P-388 = assay: Life span of mice with transplantable leukemia P-388; format: in vivo, inbred mice
From the text: as §1, §4, §5

[5] = Growth of graft sarcoma AK in mice; format: in vivo, noninbred white mice; conditions: mouse, in vivo, ip; mice with sarcoma AK, repeated intraperitoneal administration; read-out: Maximum tolerable dose (MTD)
From the text: as §1, §2, §3

sarcoma AK = assay: Growth of graft sarcoma AK in mice; format: in vivo, noninbred white mice; conditions: mice
From the text: as §1, §2, §3

[6] = 75 mg/kg intraperitoneally, 7 injections
[7] = mice with transplantable leukemia La
[8] = mice, repeated intraperitoneal administration (once a day, daily for 7 days)
[9] = mice, repeated intraperitoneal administration (once a day, daily for 7 days), listed as Preparation of the invention
[10] = mice, single intraperitoneal administration
[11] = 50 mg/kg intraperitoneally, 7 injections
[12] = 80 mg/kg intraperitoneally, 5 injections
[13] = mice with transplantable leukemia P-388
[14] = 75 mg/kg intraperitoneally, 8 injections
[15] = 125 mg/kg intraperitoneally, 6 injections

## O=C(CCBr)N1CC[N+]2(CC1)CC[N+]1(CCN(C(=O)CCBr)CC1)CC2 [Compound 1, N,N^3 -di-(β-bromopropionyl)-N^1,N^2 -dispirotripiperazinium dichloride]
[1]
  MTD: 277 mg/kg
Sarcoma 37; [6]
  Change in the animal body weight, test: -2 g
  It, % tumor growth suppression index: +74%
Sarcoma 37; 150 mg/kg intraperitoneally, 5 injections
  It, % tumor growth suppression index: +53%
Sarcoma 37; 277 mg/kg intraperitoneally (MTD), 6 injections
  Change in the animal body weight, test: -4 g
Leukemia La; leukemia La, MTD
  extension of life span of treated mice as compared to the control: 3 times
Leukemia La; [7]
  It, % index of suppression of leukosis development: 218%
  Life span: 21.2 ± 0.1 days
[2]
  MTD: 111 mg/kg
Sarcoma M-1; 90 mg/kg intraperitoneally
  Change in the animal body weight, test: +7 g
  It, % tumor growth suppression index: +96%
Sarcoma M-1; 111 mg/kg intraperitoneally (MTD)
  Change in the animal body weight, test: +4 g
[3]; less toxic than prospidin, DL50 single administration to mice
  toxicity in comparison with prospidin: 2 times
[3]; mice, intraperitoneal administration
  Ik index of toxic effect cumulation: 82
[3]; [8]
  DL50 (average lethal dose): 444 mg/kg
  DL95 (absolutely lethal dose): 577 mg/kg
[3]; [9]
  DL50 (average lethal dose): 444 mg/kg
  DL95 (absolutely lethal dose): 577 mg/kg
[3]; [10]
  DL50 (average lethal dose): 1,924 mg/kg
  DL95 (absolutely lethal dose): 2,272 mg/kg
[3]; mice, single intraperitoneal administration, listed as Preparation of the invention
  DL95 (absolutely lethal dose): 2272 mg/kg
[3]; mice, single intraperitoneal administration, listed as preparation according to the present invention
  DL50 (average lethal dose): 1,924 mg/kg
[3]; mouse, in vivo, ip, mice, single intraperitoneal administration, read-out: DL50 (average lethal dose)
  LD50: 1920 mg/kg
[3]; mouse, in vivo, ip, repeated intraperitoneal administration, read-out: MTD
  MTD: 149 mg/kg
[4]
  MTD: 125 mg/kg
Sarcoma 45; 20 mg/kg intraperitoneally, 7 injections
  Change in the animal body weight, test: -12 g
Sarcoma 45; 20 mg/kg intraperitoneally, 7 injections, 20 mg/kg
  It, % tumor growth suppression index: 0%
Sarcoma 45; [11]
  Change in the animal body weight, test: -8 g
  It, % tumor growth suppression index: +61%
Sarcoma 45; [12]
  Change in the animal body weight, test: -9 g
  It, % tumor growth suppression index: +99%
Sarcoma 45; 125 mg/kg intraperitoneally (MTD), 5 injections
  Change in the animal body weight, test: -3 g
Leukemia P-388; leukemia P-388
  extension of life span as compared to the control, factor: 2
Leukemia P-388; [13]
  It, % index of suppression of leukosis development: 103%
  Life span: 19.7 ± 0.2 days
[5]
  MTD: 250 mg/kg
Sarcoma AK; [14]
  Change in the animal body weight, test: -3 g
  It, % tumor growth suppression index: +81%
Sarcoma AK; [15]
  Change in the animal body weight, test: -1 g
  It, % tumor growth suppression index: +62%
Sarcoma AK; 200 mg/kg intraperitoneally, 5 injections
  It, % tumor growth suppression index: +64%
Sarcoma AK; 250 mg/kg intraperitoneally (MTD), 6 injections
  Change in the animal body weight, test: -3 g
